In experiment [1] the target is RBP4 (Homo sapiens (Human), UniProt P02753). The experiment can be described thus: RBP4 SPA binding assay (displacement of 3H-retinol). Background: Loss of bound radioactivity is the signal in a displacement assay; it reports binding, not function.
Experiment [2] deals with RBP4-TTR interaction (Homo sapiens (Human), UniProt P02753). As to the kind of experiment: HTRF RBP4-TTR interaction assay. The format is biochemical. As for the experimental part: HTRF Cryptate labeling kit from CisBio (Cisbio, cat #62EUSPEA, Bedfored, MA) was used to label TTR with Eu^3+ Cryptate. The assay was performed in a final assay volume of 16 μl in the buffer that contained 10 mM Tris-HCl pH 7.5, 1 mM DTT, 0.05% NP-40, 0.05% Prionex, 6% glycerol, and 400 mM KF. […] All of the reactions were performed under dim red light in the dark. The plates were read in the SpectraMax M5e Multimode Plate Reader (Molecular Devices, Sunnyvale, CA) after the overnight incubation at 4° C. […] The HTRF signal was expressed as the ratio of fluorescence intensity: Flu668/Flu620×10,000.
In general terms: Time-resolved FRET reads energy transfer from a long-lived donor to a nearby acceptor.

The target of experiment [3] is TTR (Homo sapiens (Human), UniProt P02766). The experiment can be described thus: biochemical. The note with it: FITC-coupled TTR FP probe; read-out: TTR FP IC50. The format is binding. The method, then:
Compound binding to TTR was assessed in the fluorescence polarization assay. […] Each well contained 200 nM TTR and 100 nM FITC-diclofenac in the FP buffer (10 mM Tris-HCl pH 7.5, 150 mM NaCl, 0.01% CHAPS, 0.01% Prionex) along with test compounds. Nonspecific binding was determined in the presence of 500 μM unlabeled diclofenac (Sigma-Aldrich). Reactions with test compounds were incubated overnight at 4° C. and FP was measured on SpectramaxM5e plate reader (Molecular Devices).

Setting [4] is: fixed 10 nM 3H-retinol, read-out: RBP4 SPA IC50.
Setting [5] is: 1 μM retinol, read-out: RBP4-TTR HTRF IC50.

Structures are written as SMILES. Like-named read-outs stand apart in the source and are kept apart here.

The IC50 is the concentration that inhibits the measured activity by half. Regarding `Cc1cc(C(=O)O)nc(N2CCC(COc3cnccc3C(F)(F)F)C2)n1` (racemic) [Compound (±)-92, (±)-6-Methyl-2-(3-(((4-(trifluoromethyl)pyridin-3-yl)oxy)methyl)pyrrolidin-1-yl)pyrimidine-4-carboxylic Acid], the figures for the IC50 in experiment [1] (setting [4]), in experiment [2] (setting [5]) and in experiment [3] were 520 nM, 3700 nM and over 30000 nM, respectively.

Turning to `Cc1cc(C(=O)O)nc(N2CCC(COc3ccccc3C3CCCCC3)C2)n1` (racemic) [Compound (±)-85, (±)-2-(3-((2-Cyclohexylphenoxy)methyl)pyrrolidin-1-yl)-6-methylpyrimidine-4-carboxylic Acid], the IC50 in experiment [1] was 210 nM; in experiment [3] it was over 30000 nM.

Turning to `Cc1cc(C(=O)O)nc(N2CCC(COc3cc(C(F)(F)F)cc(C(F)(F)F)c3)C2)n1` (racemic) [Compound (±)-91, (k)-2-(3-((3,5-Bis(trifluoromethyl)phenoxy)methyl)pyrrolidin-1-yl)-6-methylpyrimidine-4-carboxylic Acid], the IC50 in experiment [1] (setting [4]) is 1600 nM; in experiment [3] it was over 30000 nM.

Turning to `Cc1cc(C(=O)O)nc(N2CCC(Oc3ccccc3C(F)(F)F)CC2)n1` [Compound 21, 6-Methyl-2-(4-(2-(trifluoromethyl)phenoxy)piperidin-1-yl)pyrimidine-4-carboxylic Acid], the IC50 in experiment [1] (setting [4]) turned out to be 2440 nM; in experiment [2] (setting [5]), 18700 nM; in experiment [3] it was 4000 nM.

On to `Cc1cc(-c2nn[nH]n2)nc(N2CCC(COc3ccccc3C(F)(F)F)C2)n1` (racemic) [(±)-103, (±)-4-Methyl-6-(2H-tetrazol-5-yl)-2-(3-((2-(trifluoromethyl)phenoxy)methyl)pyrrolidin-1-yl)pyrimidine], for which the values for the IC50 in experiment [1], in experiment [2] and in experiment [3] were 86 nM, 1600 nM and 1260 nM, respectively.

Turning to `O=C(O)c1ccc(F)c(N2CCC(COc3ccccc3C(F)(F)F)C2)c1` (racemic) [(±)-98, (±)-4-Fluoro-3-(3-((2-(trifluoromethyl)phenoxy)methyl)pyrrolidin-1-yl)benzoic Acid], the values for the IC50 in experiment [1] and in experiment [3] were 2350 nM and 1880 nM, respectively.

For `Cc1cc(C(=O)O)nc(N2CCC(COc3ccccc3C(C)(C)C)C2)n1` (racemic) [Compound (±)-83, (±)-2-(3-((2-(Tert-butyl)phenoxy)methyl)pyrrolidin-1-yl)-6-methylpyrimidine-4-carboxylic Acid], the IC50 is 130 nM in experiment [1] (setting [4]), 450 nM in experiment [2] (setting [5]) and over 30000 nM in experiment [3].

Consider `CNC(=O)c1cc(C)nc(N2CCC(COc3ccccc3C(F)(F)F)C2)n1` (racemic) [(±)-101, (±)-N,6-dimethyl-2-(3-((2-(trifluoromethyl)phenoxy)methyl)pyrrolidin-1-yl)pyrimidine-4-carboxamide], for which the IC50 was 89 nM in experiment [1] (setting [4]), over 30000 nM in experiment [2] (setting [5]) and over 30000 nM in experiment [3].

For `Cc1cc(C(=O)O)nc(N2CC[C@@H](COc3ccccc3C(F)(F)F)C2)n1` [Compound (R)-50, (R)-6-Methyl-2-(3-((2-(trifluoromethyl)phenoxy)methyl)pyrrolidin-1-yl)pyrimidine-4-carboxylic Acid], the IC50 in experiment [1] (read-out: RBP4 SPA IC50) was 65 nM; in experiment [2] (setting [5]), 240 nM; in experiment [3] it was 3200 nM.

Consider `Cc1cc(C(=O)O)nc(N2CCC(COc3ccccc3C3CCCC3)C2)n1` (racemic) [Compound (±)-84, (±)-2-(3-((2-Cyclopentylphenoxy)methyl)pyrrolidin-1-yl)-6-methylpyrimidine-4-carboxylic Acid], for which the IC50 in experiment [1] (setting [4]) was 160 nM; in experiment [2] (setting [5]), 540 nM; in experiment [3] it was over 30000 nM.

Take `O=C(O)c1ccnc(N2CCC(COc3ccccc3C(F)(F)F)C2)n1` (racemic) [Compound (±)-94, (±)-2-(3-((2-(Trifluoromethyl)phenoxy)methyl)pyrrolidin-1-yl)pyrimidine-4-carboxylic Acid]: the half-maximal inhibitory concentration (IC50) amounted to 1670 nM in experiment [1] and 11000 nM in experiment [3].

With `Cc1cc(C(=O)O)nc(N2CCC(Oc3ccccc3C(F)(F)F)C2)n1` (racemic) [(±)-27, (±)-6-Methyl-2-(3-(2-(trifluoromethyl)phenoxy)pyrrolidin-1-yl)pyrimidine-4-carboxylic Acid], the IC50 was over 3000 nM in experiment [1] and 8800 nM in experiment [3].

On to `Cc1cc(C(=O)O)nc(N2CCC3(CCN(c4ccccc4C(F)(F)F)C3)C2)n1` (racemic) [(±)-67, (±)-6-Methyl-2-(7-(2-(trifluoromethyl)phenyl)-2,7-diazaspiro[4.4]nonan-2-yl)pyrimidine-4-carboxylic Acid], for which the results for the IC50 in experiment [1] and in experiment [3] were 260 nM and 1600 nM, respectively.

On to `Cc1cc(C(=O)O)nc(N2CCC(OCc3ccccc3C(F)(F)F)C2)n1` (racemic) [(±)-80, (±)-6-Methyl-2-(3-((2-(trifluoromethyl)benzyl)oxy)pyrrolidin-1-yl)pyrimidine-4-carboxylic Acid], for which the IC50 is over 3000 nM in experiment [1] and 13000 nM in experiment [3].

For the molecule `COc1ccc(C(F)(F)F)c(OCC2CCN(c3nc(C)cc(C(=O)O)n3)C2)c1` (racemic) [Compound (±)-90, (k)-2-(3-((5-Methoxy-2-(trifluoromethyl)phenoxy)methyl)pyrrolidin-1-yl)-6-methylpyrimidine-4-carboxylic Acid], the IC50 was over 3000 nM in experiment [1] (setting [4]) and over 30000 nM in experiment [3].

Turning to `Cc1cc(C(=O)O)nc(N2CCC(CSc3ccccc3C(F)(F)F)C2)n1` (racemic) [Compound (±)-71, (±)-6-Methyl-2-(3-(((2-(trifluoromethyl)phenyl)thio)methyl)pyrrolidin-1-yl)pyrimidine-4-carboxylic Acid], the values for the IC50 in experiment [1] (setting [4]), in experiment [2] (setting [5]) and in experiment [3] were 230 nM, 1300 nM and 10500 nM, respectively.

Consider `Cc1cc(C(=O)O)nc(N2CCCC(COc3ccccc3C(F)(F)F)C2)n1` (racemic) [(±)-62, (±)-6-Methyl-2-(3-((2-(trifluoromethyl)phenoxy)methyl)piperidin-1-yl)pyrimidine-4-carboxylic Acid], for which the IC50 turned out to be 480 nM in experiment [1], 15000 nM in experiment [2] and 1100 nM in experiment [3].

For the molecule `Cc1cc(C(=O)O)nc(N2CCC(COc3cccnc3C(F)(F)F)C2)n1` (racemic) [Compound (±)-93, (±)-6-Methyl-2-(3-(((2-(trifluoromethyl)pyridin-3-yl)oxy)methyl)pyrrolidin-1-yl)pyrimidine-4-carboxylic Acid], the IC50 was 660 nM in experiment [1] and over 30000 nM in experiment [3].

In the case of `O=C(O)c1cccc(N2CCC(COc3ccccc3C(F)(F)F)C2)n1` (racemic) [Compound (±)-96, (±)-6-(3-((2-(Trifluoromethyl)phenoxy)methyl)pyrrolidin-1-yl)picolinic acid], the IC50 in experiment [1] is over 3000 nM; in experiment [3], 25000 nM.

Turning to `Cc1cc(C(=O)O)nc(N2CCC(COc3cccc(Cl)c3C(F)(F)F)C2)n1` (racemic) [Compound (±)-86, (k)-2-(3-((3-Chloro-2-(trifluoromethyl)phenoxy)methyl)pyrrolidin-1-yl)-6-methylpyrimidine-4-carboxylic Acid], the IC50 in experiment [1] (setting [4]) is 180 nM; in experiment [3], 3900 nM.

On to `Cc1cc(C(=O)O)nc(N2CC(Oc3ccccc3C(F)(F)F)C2)n1` [Compound 32, 6-Methyl-2-(3-(2-(trifluoromethyl)phenoxy)azetidin-1-yl)pyrimidine-4-carboxylic Acid], for which, in experiment [3], the half-inhibitory concentration (IC50) turned out to be 13500 nM.

The values are drawn from patent US20230348415A1, “BISPECIFIC ANTAGONISTS OF RETINOL-BINDING PROTEIN 4 THAT STABILIZE TRANSTHYRETIN TETRAMERS, THEIR PREPARATION, AND USE IN THE TREATMENT OF COMMON AGE-RELATED COMORBIDITIES” (The Trustees of Columbia University in the City of New York, priority 2020, published 2023).
